Columns and labels:
[1] = molecular target: T1, Alpha-1D adrenergic receptor (Homo sapiens, UniProt P25100); assay: Binding affinity to human adrenergic Alpha-1D receptor
T1 sequence (P25100 whole entry): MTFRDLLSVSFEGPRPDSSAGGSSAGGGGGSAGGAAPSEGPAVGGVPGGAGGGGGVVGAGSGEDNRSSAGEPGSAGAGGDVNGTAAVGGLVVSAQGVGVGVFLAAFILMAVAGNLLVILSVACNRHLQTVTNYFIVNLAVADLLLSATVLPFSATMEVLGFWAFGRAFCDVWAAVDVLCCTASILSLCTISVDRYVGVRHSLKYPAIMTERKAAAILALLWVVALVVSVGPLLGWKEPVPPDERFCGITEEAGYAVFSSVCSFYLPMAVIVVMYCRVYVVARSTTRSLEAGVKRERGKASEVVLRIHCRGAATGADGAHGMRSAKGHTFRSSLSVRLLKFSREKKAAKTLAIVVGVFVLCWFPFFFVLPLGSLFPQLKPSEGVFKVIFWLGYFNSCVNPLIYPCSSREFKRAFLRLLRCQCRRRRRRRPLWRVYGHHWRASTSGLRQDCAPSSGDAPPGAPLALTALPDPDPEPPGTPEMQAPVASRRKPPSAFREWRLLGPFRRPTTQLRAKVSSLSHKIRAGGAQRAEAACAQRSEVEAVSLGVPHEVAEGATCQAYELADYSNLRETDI

[2] = molecular target: T2, Adrenergic receptor alpha-2 (Rattus norvegicus, UniProt P22086+P19328+P22909); assay: Binding affinity to rat adrenergic alpha2 receptor; assay type: protein assay
T2 sequence (P22086 whole entry): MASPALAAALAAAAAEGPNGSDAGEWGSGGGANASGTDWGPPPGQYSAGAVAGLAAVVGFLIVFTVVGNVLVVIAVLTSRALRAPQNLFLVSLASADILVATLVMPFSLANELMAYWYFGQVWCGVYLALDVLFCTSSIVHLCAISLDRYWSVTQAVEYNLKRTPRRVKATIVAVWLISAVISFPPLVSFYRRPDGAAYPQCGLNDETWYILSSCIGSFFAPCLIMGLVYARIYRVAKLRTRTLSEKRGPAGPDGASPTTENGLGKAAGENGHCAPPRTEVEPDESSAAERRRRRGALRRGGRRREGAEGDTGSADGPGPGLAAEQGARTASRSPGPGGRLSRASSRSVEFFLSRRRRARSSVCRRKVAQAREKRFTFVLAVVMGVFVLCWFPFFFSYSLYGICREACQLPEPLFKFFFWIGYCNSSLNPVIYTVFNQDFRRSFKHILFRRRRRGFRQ
T2 sequence (P19328 whole entry): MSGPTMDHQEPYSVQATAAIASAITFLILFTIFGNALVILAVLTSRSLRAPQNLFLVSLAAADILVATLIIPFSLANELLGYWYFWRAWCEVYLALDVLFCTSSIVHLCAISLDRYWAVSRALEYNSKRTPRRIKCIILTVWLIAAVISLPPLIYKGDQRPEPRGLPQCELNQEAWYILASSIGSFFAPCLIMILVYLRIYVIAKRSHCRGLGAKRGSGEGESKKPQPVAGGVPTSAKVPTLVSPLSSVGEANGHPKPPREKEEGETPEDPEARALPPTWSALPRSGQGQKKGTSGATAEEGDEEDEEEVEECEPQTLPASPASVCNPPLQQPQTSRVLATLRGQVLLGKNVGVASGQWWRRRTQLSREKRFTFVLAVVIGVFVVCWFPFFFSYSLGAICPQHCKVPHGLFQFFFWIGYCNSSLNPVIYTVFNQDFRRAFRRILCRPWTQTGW
T2 sequence (P22909 whole entry): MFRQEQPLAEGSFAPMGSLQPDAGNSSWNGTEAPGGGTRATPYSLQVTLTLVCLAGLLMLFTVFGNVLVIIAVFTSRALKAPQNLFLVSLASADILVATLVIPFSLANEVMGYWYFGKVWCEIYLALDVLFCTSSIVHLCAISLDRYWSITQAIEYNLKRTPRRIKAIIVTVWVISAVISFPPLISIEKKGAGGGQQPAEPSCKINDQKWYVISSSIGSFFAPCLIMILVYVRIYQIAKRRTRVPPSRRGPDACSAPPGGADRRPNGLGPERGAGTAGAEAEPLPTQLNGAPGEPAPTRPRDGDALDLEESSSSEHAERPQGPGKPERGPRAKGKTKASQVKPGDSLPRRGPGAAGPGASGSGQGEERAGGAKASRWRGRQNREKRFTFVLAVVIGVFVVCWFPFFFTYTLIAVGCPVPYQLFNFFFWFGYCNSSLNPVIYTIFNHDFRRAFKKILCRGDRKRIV

Adrenergic receptor beta = Adrenergic receptor beta (Rattus norvegicus, UniProt P18090+P10608+P26255); assay: Binding affinity to rat adrenergic beta receptor; assay type: protein assay
[3] = molecular target: T3, Alpha-1A adrenergic receptor (Rattus norvegicus, UniProt P43140); assay: Displacement of [3H]prazosin from adrenergic alpha-1A receptor in rat submaxillary gland membranes; assay type: cell membranes, Membrane
T3 sequence (P43140 whole entry): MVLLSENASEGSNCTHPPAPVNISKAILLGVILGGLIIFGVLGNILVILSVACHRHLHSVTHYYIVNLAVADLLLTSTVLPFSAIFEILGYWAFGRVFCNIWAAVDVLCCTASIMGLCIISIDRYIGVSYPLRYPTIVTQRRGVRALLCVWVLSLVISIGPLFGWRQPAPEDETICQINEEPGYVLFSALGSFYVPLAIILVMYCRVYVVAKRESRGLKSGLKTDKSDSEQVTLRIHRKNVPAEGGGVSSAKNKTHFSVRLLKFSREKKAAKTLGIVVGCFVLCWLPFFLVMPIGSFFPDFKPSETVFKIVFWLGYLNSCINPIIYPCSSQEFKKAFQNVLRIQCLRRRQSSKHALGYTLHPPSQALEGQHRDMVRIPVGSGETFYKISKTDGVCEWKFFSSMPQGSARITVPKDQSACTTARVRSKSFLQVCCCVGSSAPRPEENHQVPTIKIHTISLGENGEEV

[4] = molecular target: T4, Alpha-1B adrenergic receptor (Rattus norvegicus, UniProt P15823); assay: Displacement of [3H]prazosin from adrenergic alpha-1B receptor in rat liver membranes; assay type: cell membranes, Membrane
T4 sequence (P15823 whole entry): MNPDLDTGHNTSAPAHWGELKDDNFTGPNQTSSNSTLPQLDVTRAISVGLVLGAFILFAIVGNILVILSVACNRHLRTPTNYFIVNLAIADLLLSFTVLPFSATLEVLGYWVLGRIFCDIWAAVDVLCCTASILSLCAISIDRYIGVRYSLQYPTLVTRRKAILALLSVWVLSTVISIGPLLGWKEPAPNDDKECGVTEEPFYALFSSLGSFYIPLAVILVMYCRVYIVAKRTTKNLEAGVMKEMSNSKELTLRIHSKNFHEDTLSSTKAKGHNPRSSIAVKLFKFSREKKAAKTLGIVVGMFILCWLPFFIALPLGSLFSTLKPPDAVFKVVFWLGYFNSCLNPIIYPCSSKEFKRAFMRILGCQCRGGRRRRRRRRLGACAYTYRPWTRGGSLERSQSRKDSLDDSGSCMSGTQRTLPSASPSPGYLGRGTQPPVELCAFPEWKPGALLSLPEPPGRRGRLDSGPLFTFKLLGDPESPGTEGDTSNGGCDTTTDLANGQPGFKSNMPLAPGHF

Row | Structure (SMILES) | Ki [1] | Ki [2] | Ki (Adrenergic receptor beta) | Ki [3] | Ki [4]
1 | Cl.Cl.Fc1ccc2c(C3CCN(CCCN4CCCCC4)CC3)c[nH]c2c1 | 22 nM | 140 nM | > 1000 nM |  | 
2 | Fc1ccc2[nH]cc(C3CCN(CCCN4CCCCC4)CC3)c2c1 |  |  |  | 690 nM | 16 nM
3 | Cl.Cl.c1ccc2c(C3CCN(CCCN4CCCCC4)CC3)c[nH]c2c1 | 69 nM | 370 nM | > 1000 nM | 120 nM | 3 nM
4 | Cc1[nH]c2ccccc2c1C1CCN(CCCN2CCCCC2)CC1 |  |  |  | 1900 nM | 71 nM
5 | Oc1nc2ccccc2n1C1CCN(CCCN2CCCCC2)CC1 |  |  |  | 900 nM | 70 nM
6 | Cl.Cl.c1ccc2c(C3CCN(CCCCCN4CCCCC4)CC3)c[nH]c2c1 | 37 nM | 355 nM | > 1000 nM |  | 

More lines, in order of falling Ki [4], values ahead:

Row | Ki [1] | Ki [2] | Ki (Adrenergic receptor beta) | Ki [3] | Ki [4] | Structure (SMILES)
7 |  |  |  |  | 1120 nM | c1ccc(CC2CCN(CCCN3CCCCC3)CC2)cc1
8 |  |  |  | 480 nM | 60 nM | Cn1cc(C2CCN(CCCN3CCCCC3)CC2)c2ccccc21
9 |  |  |  | 57 nM | 14 nM | c1ccc2c(C3CCN(CCCN4CCCCC4)CC3)noc2c1
10 |  |  |  | 60 nM | 7.7 nM | c1ccc2c(C3CCN(CCCN4CCCCC4)CC3)coc2c1
11 |  |  |  | 56 nM | 1.1 nM | c1ccc2c(C3CCN(CCCCN4CCCCC4)CC3)c[nH]c2c1

From ChEMBL document CHEMBL1146014, “Design and synthesis of selective alpha1B adrenoceptor antagonists” (Bioorg Med Chem Lett, 2006)
